The record followed here is patent US5607544A, “Process and agent for the oxidative bleaching of wood pulp and for deinking waste paper” (BK Ladenburg GmbH fur Chemische Erzeugnisse, priority 1994, dated 1997).

For orientation: inhibition means the percentage by which the read-out fell short of the control. Lower therefore signals a response near the control.

The subject of data set [1] is catalase. As to the kind of experiment: Catalase test: pressure increase after hydrogen peroxide addition to deinking process water of a paper factory. To be noted: 0.1% hydrogen peroxide. In kind it is biochemical. On the procedure:
(§1) The catalase test depends upon the measurement of the increase of the pressure in an airtight-closed vessel after the introduction of 0.1% hydrogen peroxide. With increasing concentration of catalase in a sample, the pressure to be measured increases correspondingly. The pressure is given as an electric signal in relative units (mV). The pressure increase is measured after 10 minutes.

Data set [2] addresses T1, enzyme catalase (No. C10 Sigma catalogue) (Bos taurus, UniProt P00432).
T1 construct: purchased Sigma C10
T1 sequence (P00432 2-527 limits assumed): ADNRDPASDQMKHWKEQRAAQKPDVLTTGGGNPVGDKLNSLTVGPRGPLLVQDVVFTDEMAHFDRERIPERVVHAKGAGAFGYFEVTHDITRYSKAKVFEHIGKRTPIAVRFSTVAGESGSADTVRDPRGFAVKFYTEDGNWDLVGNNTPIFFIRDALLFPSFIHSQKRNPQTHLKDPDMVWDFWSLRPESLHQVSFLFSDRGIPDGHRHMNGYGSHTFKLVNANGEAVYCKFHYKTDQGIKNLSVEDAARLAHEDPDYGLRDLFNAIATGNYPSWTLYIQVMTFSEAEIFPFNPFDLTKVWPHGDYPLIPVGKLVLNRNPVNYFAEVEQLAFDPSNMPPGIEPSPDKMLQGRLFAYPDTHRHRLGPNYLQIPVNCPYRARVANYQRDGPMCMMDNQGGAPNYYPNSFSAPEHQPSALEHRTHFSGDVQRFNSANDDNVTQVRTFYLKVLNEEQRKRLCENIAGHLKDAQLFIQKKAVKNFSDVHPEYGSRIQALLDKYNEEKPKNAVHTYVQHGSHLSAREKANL
As to the kind of experiment: Action on the pure enzyme catalase, absorption decrease at 240 nm. In kind it is biochemical. The protocol:
phosphate buffer 0.05M, pH 7.0 (K2 HPO4 : 8.7 g/l; KH2 PO4 : 6.8 g/l)
enzyme catalase (No. C10 Sigma catalogue)
substrate hydrogen peroxide (30%).
Dissolve catalase in 0.05M phosphate buffer.
Concentration: 50 sigma units per ml of buffer.
Dissolve 0.1 ml 30% hydrogen peroxide in 50 ml of 0.05M phosphate buffer (control) or in 50 ml phosphate buffer which contains the stabiliser (substrate). Measure the absorption at 240 nm. The result must lie between 0.550 and 0.520. Possibly dilute the solution or add more hydrogen peroxide thereto.
2.9 ml of solution B are placed in a quartz cuvette and subsequently mixed with 0.1 ml of solution A. The absorption at 240 nm should, at the beginning of the measurement, amount to approximately 0.450. The time needed for the decrease of the absorption at 240 nm from 0.450 to 0.400 is determined. This time corresponds to the conversion of 3.45 μmol hydrogen peroxide in 3 ml of sample volume.
(sigma units total)=3.45: time (minutes calculating back to active sigma units 1 sigma unit reacts 1.0 μmol hydrogen peroxide per minute (at pH 7.0; 25° C.).

Data set [3] can be described thus: Residual peroxide content by iodometric titration in deinking process water samples. An excerpt:
The measurement of the residual peroxide content took place by iodometric titration.
The initial peroxide content corresponds to 100% (=0.1% hydrogen peroxide (100%)).

Data set [4] in a line: Laboratory deinking experiment with process water 1 (whiteness, flotate, ash, residual peroxide). The conditions noted are these: 0 sample 15.7%. On the procedure:
Into 1 liter of water of 30° dH (tap water) are introduced:
(§2) Into the pulper (2800 r.p.m.) are introduced 50 g of atro waste paper and the chemical solution is subsequently introduced. The pulping time is 10 minutes. After ending of the brushing out time, the paper slurry is shaken out into a glass beaker, stirred up with a commercially available ultrasonic disperser and the pH value determined.
The pH value is 9.5±0.2. 100 ml are taken from the brushed out suspension and a sheet formed (degree of whiteness and brightness before the flotation).
(§3) The remaining fibre material is placed for 110 minutes in a waterbath with a temperature of 50° C. After the residence time, it is dispersed with a disperser for 1 minute at 10,000 r.p.m. The paper slurry is emptied into a flotation cell which is filled with water with a temperature of 50° C. There is thereby adjusted a material density of 0.8% (pH value 8.5). Air is introduced into the cell at a rate of 60 liters/hour and the speed of stirring is 1000 r.p.m. The flotation time is 10 minutes, foam being skimmed off manually. After the flotation is ended, acidification is carried out with sulphuric acid to pH 5 and sheets are formed.
The brightness and degree of whiteness are measured on the front and rear side and the average value determined.
R 457: reflection factor at 457 nm wavelength
Y/C: standard type of light C/1931
Process water 1 was used. The statements of percentage refer to the commercial product and the residual peroxide was determined by a titration method.

Data set [5] relates to catalase. Put plainly: Pressure increase after hydrogen peroxide addition to process water 3 (rate of decomposition of peroxide). In kind it is biochemical. To be noted: 400 ppm referred to process water volume, 0.1% hydrogen peroxide, after 10 minutes, ambient temperature, 0 sample 9.8. On the procedure:
as §1
As sample, there was used process water 3 and worked up analogously to Example 1. After the addition of 0.1% hydrogen peroxide (referred to 100% hydrogen peroxide), there was measured the pressure increase in relative pressure units (in mV) after 10 minutes. The measurement took place at ambient temperature.

Data set [6] is described as follows: Flotation experiment in tap water without waterglass (stability of hydrogen peroxide). To be noted: no waterglass; for residual peroxide: 0 sample 15%. The protocol:
as §2, §3
In the case of this experiment, working was analogous to Example 3 but tap water was used instead of process water. […] At the same time, in the case of this experiment, the addition of waterglass as stabiliser is omitted.

[7] abbreviates: 400 ppm active substance, pressure increase after 10 minutes, comparison sample without additive 9.8.

Take `N#CC(Br)(Br)C(N)=O` [DBNPA, 2,2-dibromo-3-nitrilopropionamide]: the “pressure in relative units” value in the data set on catalase [1] (setting [7]) is on record as > 9.0 mV.

On to `N#CSCSC#N` [MBT, methylene bisthiocyanate], for which, in the data set on catalase [1] (setting [7]), the “pressure in relative units” value is given as 6.2 mV.

As to `CNC(=S)S` [MDTCMA, monomethylammonium monomethyl dithiocarbamate], in the data set with catalase [1] (setting [7]), the “pressure in relative units” value is on record as > 9.0 mV.

Take `OCl` [Sodium hypochlorite]: the “action on the pure enzyme catalase (in words)” value in data set [2] (solution B (hydrogen peroxide in phosphate buffer)) was “reacts in solution B with hydrogen peroxide with decomposition before catalase can be added”.

On to `OC[P+](CO)(CO)CO` [THPS, tetrakishydroxymethylphosphonium sulphate], for which, in the data set with catalase [1] (setting [7]), the “pressure in relative units” value was > 9.0 mV.

For the compound `O=CCCCC=O` [glutaraldehyde], the inhibition at 0.5 ppm in data set [2] (0.5 ppm, pH 7.0) amounted to 6%. The same compound yielded an inhibition at 2.5 ppm in data set [2] (2.5 ppm, pH 7.0) of 9%. In data set [2] (5 ppm, pH 7.0), this compound displayed an inhibition at 5 ppm of 11%.

On to `CNC(=S)S` [metamsodium, sodium monomethyldithiocarbamate], for which the “pressure in relative units” value with catalase [1] (setting [7]) was 5.0 mV.

Turning to `O=C(C(Cl)=NO)c1ccc(O)cc1` [paraclox, 2-oxo-2-(4-hydroxyphenyl)-acethydroximic acid chloride], the “pressure in relative units” value in the data set with catalase [1] (10 ppm active substance, after 10 minutes) is 4.2 mV; with catalase [1] (100 ppm active substance, after 10 minutes) it was 0.5 mV; in the data set on catalase [1] (setting [7]), 0.2 mV. Besides, the residual peroxide content was determined as 100% in data set [3] (Process water 1 (clear filtrate), 10 ppm, 0 min.); 55.4% in data set [3] (Process water 1 (clear filtrate), 10 ppm, 30 min.); 43.1% in data set [3] (Process water 1 (clear filtrate), 10 ppm, 60 min.); 33.8% in data set [3] (Process water 1 (clear filtrate), 10 ppm, 90 min.); 26.9% in data set [3] (Process water 1 (clear filtrate), 10 ppm, 120 min.); 100% in data set [3] (Process water 1 (clear filtrate), 100 ppm, 0 min.). Further, the residual peroxide content in data set [3] (Process water 1 (clear filtrate), 100 ppm, 30 min.) was determined as 95.4%; in data set [3] (Process water 1 (clear filtrate), 100 ppm, 60 min.) it was 87.7%; in data set [3] (Process water 1 (clear filtrate), 100 ppm, 90 min.), 87.7%; in data set [3] (Process water 1 (clear filtrate), 100 ppm, 120 min.), 86.1%; in data set [3] (Process water 2 (drum 1), 2 ppm, 0 min.), 100%; in data set [3] (Process water 2 (drum 1), 2 ppm, 30 min.), 3.6%. The residual peroxide content in data set [3] (Process water 2 (drum 1), 2 ppm, 60 min.) amounted to 0%; in data set [3] (Process water 2 (drum 1), 2 ppm, 90 min.), 0%; in data set [3] (Process water 2 (drum 1), 2 ppm, 120 min.) it was 0%; in data set [3] (Process water 2 (drum 1), 20 ppm, 0 min.), 100%; in data set [3] (Process water 2 (drum 1), 20 ppm, 30 min.) it was 62.1%; in data set [3] (Process water 2 (drum 1), 20 ppm, 60 min.), 56.8%. In addition, the residual peroxide content in data set [3] (Process water 2 (drum 1), 20 ppm, 90 min.) came to 50.8%; in data set [3] (Process water 2 (drum 1), 20 ppm, 120 min.) it was 47%. In addition, the residual peroxide was determined as 21.4% in data set [4] (paraclox 0.02%); 28.5% in data set [4] (paraclox 0.04%); 49.7% in data set [4] (paraclox 0.08%); 34.0% in data set [6] (paraclox 0.02%); 41.0% in data set [6] (paraclox 0.04%); 52.4% in data set [6] (paraclox 0.08%). The “pressure increase in relative pressure units” value with catalase [5] amounted to 0.2 mV. Further, testing at 0.2 ppm in data set [2] (0.2 ppm, pH 7.0) gave an inhibition of 0%. For the same compound, at 1 ppm the inhibition in data set [2] (1 ppm, pH 7.0) was 16%. This compound also came in with an inhibition at 2 ppm in data set [2] (2 ppm, pH 7.0) of 63%. For the same compound, in data set [6], the “stabilising action on the peroxide (in words)” value is on record as “very good stabilising action on the peroxide”.
